In paper PMC11578313, “Miniaturized Modular Click Chemistry‐enabled Rapid Discovery of Unique SARS‐CoV‐2 M^pro Inhibitors With Robust Potency and Drug‐like Profile” (Advanced Science, 2024):
Values joined by “and” are separate entries in the source; they are usually repeats but may differ in a detail not shown here. Equal values may be shown once. Read-outs that look alike come from different tables or passages of the source.

Assay: In vivo pharmacokinetic study in male ICR mice (compound alone)
Settings: for C0: read-out: C0
Protocol: The pharmacokinetics profile of the newly developed antiviral compound C5N17B was subsequently evaluated in male ICR mice that were free from specific pathogens, aiming to assess its potential for therapeutic application in vivo.
A total of six male ICR mice were randomly assigned to two groups. One group received the test drug intravenously at a dosage of 2 mg kg^−1, while the other group received oral administration at a dosage of 10 mg kg^−1. To prepare solutions of C5N17B, 2.39 mg compound was dissolved in a mixture of 0.119 mL DMSO, 0.238 mL polyoxyl 15 hydroxystearate (Solutol), and 2.027 mL normal saline. For the intravenous group, blood samples were collected from the sinus jugular into heparinized centrifugation tubes at various time points after dosing: 5, 15, 30 min, 1, 2, 4, 6, 8, and 24 h. As for the oral administration group, blood samples were collected at similar time points (0.05 mL of blood each time). The collected blood samples were then centrifuged at a speed of 4000 rpm for 10 min to separate plasma, which was subsequently stored at −20 °C until further LC‐MS analysis to determine the concentration of C5N17B. Briefly, the analysis involved adding 20 µL of plasma, sample calibration standard, quality control, and dilution quality control, and blank samples into respective wells on a 96‐well plate. Then each sample was quenched with 200 µL of internal standard (the blank sample was quenched with 200 µL of ACN: MeOH = 1:1), followed by vortex‐mixed for 5 min, and centrifuged for 0.5 min at 4000 rpm, 4 °C. Next, a 100 µL portion of supernatant was transferred to another clean 96‐well plate and diluted with 100 µL of water, vortex‐mixed for 5 min and centrifuged for 10 min at 4000 rpm, 4 °C, then the sample was injected for LC‐MS/MS analysis. All samples were quantified using an LC‐MS/MS‐AR Triple Quad 5500+ (SCIEX, USA) and the ExionLC liquid phase system. The mobile phase was 0.1% formic acid‐water/ACN with gradient elute at a flow rate of 0.8 mL mi^−1n (total time 2.20 min), and the detection wavelength was 225 nm. All blood samples were centrifuged using an Eppendorf 5424R centrifuge and quantified using an LC‐MS/MS‐AR Triple Quad 5500+ (SCIEX, USA). The pharmacokinetic parameters were calculated by WinNolin 8.2 software.

[1] = PO 10 mg/kg, individual mice 4-6, 10 mg/kg
[2] = i.v. 2 mg kg^−1, male ICR mice, n = 3

Cc1cncc(C(=O)N2C[C@H]3CC[C@@H](C2)N3[C@H](c2cccc(F)c2)c2cn(CCc3ccsc3)nn2)c1 [Compound C5N17B]
MRTINF_pred [1]: 295 min and 184.93 min and 381.5 min | MRTlast [1]: 113.8 min and 110 min | Tlast [1]: 4 h and 6 h | Vz_F_obs [1]: 837.29 L/kg and 630.24 L/kg and 684.762 L/kg | Vz_F_pred [1]: 906.828 L/kg and 630.882 L/kg and 737.02 L/kg | F, Mean (PO 10 mg/kg, mean of mice 4#-6#): 13.0% | C0, i.v. [2]: 514 ± 164.7 ng/mL | t1/2, i.v. [2]: 6.36 ± 0.341 min | concentration at 5 min (male, ICR, mouse, plasma, iv, 2 mg/kg, IV 2 mg/kg, 5 min (5 min), mouse plasma, individual mice 1#-3#, read-out: Plasma concentration (Calculated Concentration)): 292 ng/mL | concentration at 5 min (male, ICR, mouse, plasma, iv, 2 mg/kg, IV 2 mg/kg, 5 min, individual mice, read-out: plasma concentration): 233 ng/mL | concentration at 5 min (male, ICR, mouse, plasma, iv, 2 mg/kg, IV 2 mg/kg, 5 min, mean of mice 1#-3#, read-out: Plasma concentration, Mean): 237 ng/mL | concentration at 0.5 h (male, ICR, mouse, plasma, iv, 2 mg/kg, IV 2 mg/kg, 0.5 h (30 min), mouse plasma, individual mice 1#-3#, read-out: Plasma concentration (Calculated Concentration)): 18.4 ng/mL | concentration at 0.5 h (male, ICR, mouse, plasma, iv, 2 mg/kg, IV 2 mg/kg, 0.5 h, individual mice, read-out: plasma concentration): 16.1 ng/mL | concentration at 0.5 h (male, ICR, mouse, plasma, iv, 2 mg/kg, IV 2 mg/kg, 0.50 h, mean of mice 1#-3#, read-out: Plasma concentration, Mean): 14.9 ng/mL | concentration at […] (male, ICR, mouse, plasma, iv, 2 mg/kg, IV 2 mg/kg, […] (15 min), mouse plasma, individual mice 1#-3#, read-out: Plasma concentration (Calculated Concentration)): 55.3 ng/mL | AUC(0-t) (male, ICR, mouse, plasma, iv, 2 mg/kg, IV 2 mg/kg, individual mice 1#-3#, read-out: AUC0-t): 78.3 ng·h/mL | AUC(0-inf) (male, ICR, mouse, plasma, iv, 2 mg/kg, IV 2 mg/kg, individual mice 1#-3#, read-out: AUC0-∞): 81.1 ng·h/mL | C0 (male, ICR, mouse, plasma, iv, 2 mg/kg, IV 2 mg/kg, individual mice 1#-3#): 671 ng/mL | clearance (male, ICR, mouse, plasma, iv, 2 mg/kg, IV 2 mg/kg, individual mice 1#-3#, read-out: Cl (converted)): 411 mL/min/kg | Cmax (male, ICR, mouse, plasma, iv, 2 mg/kg, IV 2 mg/kg, individual mice 1#-3#, read-out: Cmax): 292 ng/mL | MRT last (male, ICR, mouse, plasma, iv, 2 mg/kg, IV 2 mg/kg, individual mice 1#-3#, read-out: MRT0-t): 5.42 min | MRT inf (male, ICR, mouse, plasma, iv, 2 mg/kg, IV 2 mg/kg, individual mice 1#-3#, read-out: MRT0-∞): 6.6 min | half-life (male, ICR, mouse, plasma, iv, 2 mg/kg, IV 2 mg/kg, individual mice 1#-3#, read-out: T1/2 (converted)): 6.42 min | Tmax (male, ICR, mouse, plasma, iv, 2 mg/kg, IV 2 mg/kg, individual mice 1#-3#, read-out: Tmax): 5 min | Vd (male, ICR, mouse, plasma, iv, 2 mg/kg, IV 2 mg/kg, individual mice 1#-3#, read-out: Vz): 3.82 L/kg | AUC(0-inf) (male, ICR, mouse, plasma, iv, 2 mg/kg, IV 2 mg/kg, individual mice 1-3, read-out: AUCINF_obs): 81.1 ng·h/mL | AUC(0-inf) (male, ICR, mouse, plasma, iv, 2 mg/kg, IV 2 mg/kg, individual mice 1-3, read-out: AUCINF_pred): 80.7 ng·h/mL | AUC (male, ICR, mouse, plasma, iv, 2 mg/kg, IV 2 mg/kg, individual mice 1-3, read-out: AUCall): 78.3 ng·h/mL | AUC(0-t) (male, ICR, mouse, plasma, iv, 2 mg/kg, IV 2 mg/kg, individual mice 1-3, read-out: AUClast): 78.3 ng·h/mL | C0 (male, ICR, mouse, plasma, iv, 2 mg/kg, IV 2 mg/kg, individual mice 1-3): 671 ng/mL | clearance (male, ICR, mouse, plasma, iv, 2 mg/kg, IV 2 mg/kg, individual mice 1-3, read-out: Cl_obs (converted)): 411 mL/min/kg | concentration at 0.5 h (male, ICR, mouse, plasma, iv, 2 mg/kg, IV 2 mg/kg, individual mice 1-3, read-out: Clast): 18.4 ng/mL | Cmax (male, ICR, mouse, plasma, iv, 2 mg/kg, IV 2 mg/kg, individual mice 1-3, read-out: Cmax): 292 ng/mL | k el (male, ICR, mouse, plasma, iv, 2 mg/kg, IV 2 mg/kg, individual mice 1-3, read-out: Lambda_z (converted)): 0.00179 s⁻¹ | MRT inf (male, ICR, mouse, plasma, iv, 2 mg/kg, IV 2 mg/kg, individual mice 1-3, read-out: MRTINF_obs): 6.61 min | MRT inf (male, ICR, mouse, plasma, iv, 2 mg/kg, IV 2 mg/kg, individual mice 1-3, read-out: MRTINF_pred): 6.45 min | MRT last (male, ICR, mouse, plasma, iv, 2 mg/kg, IV 2 mg/kg, individual mice 1-3, read-out: MRTlast): 5.42 min | Tmax (male, ICR, mouse, plasma, iv, 2 mg/kg, IV 2 mg/kg, individual mice 1-3, read-out: Tmax): 5 min | AUC(0-t) (male, ICR, mouse, plasma, iv, 2 mg/kg, IV 2 mg/kg, mean of mice 1#-3#, read-out: AUC0-t, Mean): 63.6 ng·h/mL | AUC(0-inf) (male, ICR, mouse, plasma, iv, 2 mg/kg, IV 2 mg/kg, mean of mice 1#-3#, read-out: AUC0-∞, Mean): 65.9 ng·h/mL | clearance (male, ICR, mouse, plasma, iv, 2 mg/kg, IV 2 mg/kg, mean of mice 1#-3#, read-out: Cl, Mean (converted)): 524 mL/min/kg | Cmax (male, ICR, mouse, plasma, iv, 2 mg/kg, IV 2 mg/kg, mean of mice 1#-3#, read-out: Cmax, Mean): 237 ng/mL | MRT last (male, ICR, mouse, plasma, iv, 2 mg/kg, IV 2 mg/kg, mean of mice 1#-3#, read-out: MRT0-t, Mean): 5.81 min | MRT inf (male, ICR, mouse, plasma, iv, 2 mg/kg, IV 2 mg/kg, mean of mice 1#-3#, read-out: MRT0-∞, Mean): 6.96 min | half-life (male, ICR, mouse, plasma, iv, 2 mg/kg, IV 2 mg/kg, mean of mice 1#-3#, read-out: T1/2, Mean (converted)): 6.36 min | Tmax (male, ICR, mouse, plasma, iv, 2 mg/kg, IV 2 mg/kg, mean of mice 1#-3#, read-out: Tmax, Mean): 5 min | Vd (male, ICR, mouse, plasma, iv, 2 mg/kg, IV 2 mg/kg, mean of mice 1#-3#, read-out: Vz, Mean): 4.79 L/kg | AUC (male, ICR, mouse, plasma, iv, 2 mg/kg, i.v. 2 mg kg^−1, male ICR mice, n = 3, read-out: AUC0‐t, i.v.): 63.6 ± 14.2 ng·h/mL
